Data set [1] in a line: Nitric oxide radical scavenging assay (Griess reaction). The settings on record: NO radical scavenging. On the procedure:
Nitric oxide was generated from sodium nitroprusside and measured by Griess’ reaction following the literature method. The experiment was done in triplicate with ascorbic acid (vitamin C) used as a positive control for the assay. In total, 50 μL of each of the test compounds and the positive control at various concentrations (0.1, 0.5, 1.0, 5.0, and 10.0 μM in methanol) were added to each designated well of the 96 well plate. A total of 50 μL of sodium nitroprusside (10 mM) prepared in saline phosphate buffer (pH = 7.4) was then added to each well and the reaction mixture incubated at room temperature for 3 h. Afterward, 300 μL of the Griess reagent (a mixture of 0.2% N-(1-naphthyl)ethylenediamine dihydrochloride and 2% sulfanilamide in […]) was added to each well and absorbance was read at 546 nm using a Varioskan flash microplate spectrophotometer reader.

In data set [2] the target is T1, AChE (Homo sapiens, UniProt P22303).
T1 construct: purchased BioLegend (via Biocom Africa (Pty) Ltd.)
Kind of data set: Enzyme kinetic study against AChE (Lineweaver-Burk and Dixon plots). It counts as biochemical. On the procedure:
The AChE and BChE enzyme kinetic studies were performed in triplicate in a 96-well plate following a procedure described in our previous study. Varying concentrations of 2a or 3c (0, 2.5, 3.5, and 5 μM) and AChI or BChI (0.1, 0.5, 2.5, and 5 mM) were used for the kinetic assays. The absorbances were measured after every 1 s for 10 s at a wavelength of 412 nm using a microplate spectrophotometer reader. The Lineweaver–Burk plots (plot of the inverse of velocity (1/v) against the inverse of the substrate concentration (1/[S])) were constructed.

The nature of data set [3]: Cytotoxicity (MTT assay) on Vero cells. The settings on record: monkey, Vero cells (normal monkey kidney cells). On the procedure: (§1) The cytotoxicity activity of the compounds was evaluated using the 3-(4,5-dimethylthiazol-2-yl)-2,5-diphenyltetrazolium bromide (MTT) assay following a modification of a method by Mosmann. Normal monkey kidney cells (Vero cells) and adeno-carcinomic human epithelial cells (A549 cells) were maintained in Dulbecco’s modified Eagle’s medium (DMEM, Gibco) supplemented with 10% fetal bovine serum (FBS) and 1% penicillin/streptomycin in culture flasks and incubated at 37 °C in 5% CO2. […] Cells were seeded at 1 × 10^5 cells/well and incubated overnight to allow cell attachment. After 24 h, treatments were administered with different concentrations (0, 2.5, 5, 10, 25, 50, and 100 μM) of the compounds and doxorubicin (positive control). After 24 h of incubation, 20 μL of the MTT solution (5 mg/mL) was added in all the wells, which was followed by 4 h of incubation.

A short description of data set [4]: Metal chelation study by UV-vis spectrometry. The settings on record: room temperature. It is filed as physicochemical. On the procedure: The metal chelating ability of compounds 2a and 3b toward Cu^2+ and Zn^2+ was evaluated by ultraviolet–visible (UV–Vis) spectrometry. A solution of the test compound in methanol (30 μM, final concentration) alone or in the presence of CuCl2 or ZnCl2 (30 μM, final concentration) was stirred at RT for 30 min. The absorption spectra were recorded at room temperature on a PerkinElmer UV/Vis spectrometer (Perkin Elmer, Inc., Midrand, Johannesburg, South Africa) at wavelengths ranging from 200 to 1200 nm.
The ability of compound 2a to chelate Cu^2+ or Zn^2+ was assessed using a UV–vis spectrophotometric assay with a wavelength in the region of 200–1200 nm. The absorption spectrum of 2a (Figure 2) acquired in methanol at room temperature is characterized by four discernible absorption bands, around λ 300, 500, 690, and 1000 nm, respectively. These bands are reduced to two distinct bands of different intensities in the presence of either CuCl2 or ZnCl2. […] A bathochromic shift of the band found around 500 nm in the spectrum of 2a to around 580 nm in the presence of ZnCl2 occurred with no broadening. 2-Aminobenzamide is known to bind the Cu(II) ion through the amino-N and amido-O atoms.

The next data set in a line: in vitro. The settings on record: human, A549 cells (adeno-carcinomic human epithelial cells). On the procedure:
as §1

The target in data set [5] is T1, AChE. Kind of data set: biochemical. The note with it: mean ± SD of three independent experiments. On the procedure: The melting point values of the test compounds were recorded on a Thermocouple digital melting point apparatus (Mettler Toledo LLC, Columbus, OH, USA). The infrared (IR) spectra were recorded using the thin-film method on a Bruker VERTEX 70 FT-IR Spectrometer (Bruker Optics, Billerica, MA, USA) equipped with an ATR (diamond attenuated total reflectance) accessory. Merck kieselgel 60 (0.063–0.200 mm) (Merck KGaA, Frankfurt, Germany) was used as a stationary phase for column chromatography. The ^1H-NMR and ^13C-NMR spectra of the prepared compounds were obtained as deuterated dimethyl sulfoxide ((CD3)2SO) solutions using Agilent 500 MHz NMR spectrometer (Agilent Technologies, Oxford, UK) operating at 500 MHz and 125 MHz for ^1H and ^13C, respectively. The chemical shifts are quoted relative to tetramethylsilane (TMS) used as an internal reference standard (δ = 0.00 ppm) or a residual protonated solvent. The high-resolution mass spectra were recorded at an ionization potential of 70 eV using Micromass Autospec-TOF (double focusing high resolution) instrument (Waters Corp., Milford, MA, USA). The synthesis and analytical data for 2-amino-5-iodobenzamide (1) have been reported in our previous study. Recombinant human AChE (BioLegend) and BChE (Cloud-Clone Corp.) were purchased via Biocom Africa (Pty) Ltd. (Centurion, Pretoria, South Africa).
AChE and BChE were used to determine cholinesterase activities spectrophotometrically using […] as substrates, respectively, following a modification of the Ellman’s method, as described in our previous study, and the reactions were performed in triplicate at 37 °C in a 96-well plate. […] A multi-channel pipette was used for the addition of reagents to the wells.
To each well of a 96-well plate, 8.0 μL solution of the test compound, 2.0 μL of AChE (0.04 mg/mL), and 70 μL of Tris buffer (C4H11NO3, 50 mM, pH 7.7) were added sequentially. The assay mixture was pre-incubated for 30 min at room temperature, which was followed by the addition of 10 μL of 5,5′-dithiobis-(2-nitrobenzoic acid) (DTNB, 3 mM in Tris buffer, 50 mM, pH 7.7) and 10 μL of […] (AChI, 5 mM in tris buffer, 50 mM, pH 7.7) to each well to initiate the reaction. […] The average values obtained from the absorbance readings were used to determine the IC50 and standard deviation values using the Graph Pad Prism (version 5.0, GraphPad software Inc., San Diego, CA, USA).

Here are results for 1 molecule from paper PMC8145986, “In Vitro Enzymatic and Kinetic Studies, and In Silico Drug-Receptor Interactions, and Drug-Like Profiling of the 5-Styrylbenzamide Derivatives as Potential Cholinesterase and β-Secretase Inhibitors with Antioxidant Properties” (Antioxidants, 2021).

T1 sequence (P22303 32-614): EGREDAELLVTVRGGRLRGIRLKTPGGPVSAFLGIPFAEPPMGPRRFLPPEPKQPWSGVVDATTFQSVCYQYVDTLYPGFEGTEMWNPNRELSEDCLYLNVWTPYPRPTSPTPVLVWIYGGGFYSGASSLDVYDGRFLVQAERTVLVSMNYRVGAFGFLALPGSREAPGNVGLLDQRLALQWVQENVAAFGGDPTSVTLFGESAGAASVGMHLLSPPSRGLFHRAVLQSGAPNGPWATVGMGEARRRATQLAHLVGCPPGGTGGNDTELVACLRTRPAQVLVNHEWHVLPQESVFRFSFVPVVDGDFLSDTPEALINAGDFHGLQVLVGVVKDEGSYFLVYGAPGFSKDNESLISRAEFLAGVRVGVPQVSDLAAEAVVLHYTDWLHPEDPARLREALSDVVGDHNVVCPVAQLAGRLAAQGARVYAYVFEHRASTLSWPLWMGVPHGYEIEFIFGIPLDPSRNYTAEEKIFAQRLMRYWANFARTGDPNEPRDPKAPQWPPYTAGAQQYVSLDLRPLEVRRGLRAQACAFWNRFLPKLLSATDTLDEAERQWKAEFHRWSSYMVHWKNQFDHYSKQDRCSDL

Consider `NC(=O)c1cc(/C=C/c2ccccc2)ccc1N` [Compound 2a, (E)-2-Amino-5-styrylbenzamide], for which the figures for the IC50 (in data set [1]; against AChE [5]) were 10.3 ± 0.12 µM and 2.3 ± 0.11 µM, respectively. Further, the “mode of inhibition AChE” value on AChE [2] was “non-competitive”. In addition, on AChE [2] (read-out: Ki (Dixon plot) AChE), the Ki – broadly, the equilibrium dissociation constant of an inhibitor or competing ligand from its target – was 1.2 µM. The IC50 (as a rule, the midpoint of a concentration-inhibition curve) at 24 h came to 163 ± 0.55 µM in data set [3] and 35.4 ± 0.13 µM in the data set “in vitro”. Moreover, the “chelation of Cu2+” value in data set [4] (30 μM compound and 30 μM CuCl2 in methanol) was “selective for Cu (II) ion”. The “chelation of Zn2+” value in data set [4] (30 μM compound and 30 μM ZnCl2 in methanol) was “relatively poor chelating ability”.
